Tests used:
Assay in all cases: Weeding effect in post-emergence stage
Assay type in all cases: in vivo
Conditions in all cases: level of fresh weight growth control rate
[1] = system: Abutilon theophrasti
Summary of the method: (§1)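 Compound, dissolved in acetone and diluted in water with Tween 80 plus methyl oleate EC (1.5 liter/ha), is sprayed onto 2-3 leaf potted plants. Rates span 7.5–500 g/ha. After 3 weeks of greenhouse culture, weeding effect is counted as the mean of triplicates.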

[2] = system: Alopecurus japonicus
Summary of the method: as §1

[3] = system: Digitaria sanguinalis
Summary of the method: as §1

[4] = system: Eleusine indica
Summary of the method: as §1

[5] = system: Setaria viridis
Summary of the method: as §1

[6] = system: Echinochloa crusgalli
Summary of the method: as §1

C[C@@H](O/N=C/c1cc(-n2c(=O)cc(C(F)(F)F)n(C)c2=O)c(F)cc1Cl)C(=O)OCCO [228(R)]
Weeding effect in post-emergence stage, Abutilon theophrasti ([1]; Dose 15 g/ha): 5 (Level 5: growth control rate is above 85%) | Weeding effect in post-emergence stage, Alopecurus japonicus ([2]; Dose 15 g/ha): 5 (Level 5: growth control rate is above 85%) | Weeding effect in post-emergence stage, Digitaria sanguinalis ([3]; Dose 15 g/ha): 5 (Level 5: growth control rate is above 85%) | Weeding effect in post-emergence stage, Eleusine indica ([4]; Dose 15 g/ha): 5 (Level 5: growth control rate is above 85%) | Weeding effect in post-emergence stage, Setaria viridis ([5]; Dose 15 g/ha): 5 (Level 5: growth control rate is above 85%) | Weeding effect in post-emergence stage, Echinochloa crusgalli ([6]; Dose 15 g/ha): 5 (Level 5: growth control rate is above 85%)

COCCOC(=O)[C@@H](C)O/N=C/c1cc(-n2c(=O)cc(C(F)(F)F)n(C)c2=O)c(F)cc1Cl [230(R)]
Weeding effect in post-emergence stage, Abutilon theophrasti ([1]; Dose 15 g/ha): 5 (Level 5: growth control rate is above 85%) | Weeding effect in post-emergence stage, Alopecurus japonicus ([2]; Dose 15 g/ha): 5 (Level 5: growth control rate is above 85%) | Weeding effect in post-emergence stage, Digitaria sanguinalis ([3]; Dose 15 g/ha): 5 (Level 5: growth control rate is above 85%) | Weeding effect in post-emergence stage, Eleusine indica ([4]; Dose 15 g/ha): 5 (Level 5: growth control rate is above 85%) | Weeding effect in post-emergence stage, Setaria viridis ([5]; Dose 15 g/ha): 5 (Level 5: growth control rate is above 85%) | Weeding effect in post-emergence stage, Echinochloa crusgalli ([6]; Dose 15 g/ha): 5 (Level 5: growth control rate is above 85%)

CCOCCOC(=O)[C@@H](C)O/N=C/c1cc(-n2c(=O)cc(C(F)(F)F)n(C)c2=O)c(F)cc1Cl [231(R)]
Weeding effect in post-emergence stage, Abutilon theophrasti ([1]; Dose 15 g/ha): 5 (Level 5: growth control rate is above 85%) | Weeding effect in post-emergence stage, Alopecurus japonicus ([2]; Dose 15 g/ha): 5 (Level 5: growth control rate is above 85%) | Weeding effect in post-emergence stage, Digitaria sanguinalis ([3]; Dose 15 g/ha): 5 (Level 5: growth control rate is above 85%) | Weeding effect in post-emergence stage, Eleusine indica ([4]; Dose 15 g/ha): 5 (Level 5: growth control rate is above 85%) | Weeding effect in post-emergence stage, Setaria viridis ([5]; Dose 15 g/ha): 5 (Level 5: growth control rate is above 85%) | Weeding effect in post-emergence stage, Echinochloa crusgalli ([6]; Dose 15 g/ha): 5 (Level 5: growth control rate is above 85%)

CCCCOCCOC(=O)[C@@H](C)O/N=C/c1cc(-n2c(=O)cc(C(F)(F)F)n(C)c2=O)c(F)cc1Cl [232(R)]
Weeding effect in post-emergence stage, Abutilon theophrasti ([1]; Dose 15 g/ha): 5 (Level 5: growth control rate is above 85%) | Weeding effect in post-emergence stage, Alopecurus japonicus ([2]; Dose 15 g/ha): 5 (Level 5: growth control rate is above 85%) | Weeding effect in post-emergence stage, Digitaria sanguinalis ([3]; Dose 15 g/ha): 5 (Level 5: growth control rate is above 85%) | Weeding effect in post-emergence stage, Eleusine indica ([4]; Dose 15 g/ha): 5 (Level 5: growth control rate is above 85%) | Weeding effect in post-emergence stage, Setaria viridis ([5]; Dose 15 g/ha): 5 (Level 5: growth control rate is above 85%) | Weeding effect in post-emergence stage, Echinochloa crusgalli ([6]; Dose 15 g/ha): 5 (Level 5: growth control rate is above 85%)

CSCOC(=O)[C@@H](C)O/N=C/c1cc(-n2c(=O)cc(C(F)(F)F)n(C)c2=O)c(F)cc1Cl [233(R)]
Weeding effect in post-emergence stage, Abutilon theophrasti ([1]; Dose 15 g/ha): 5 (Level 5: growth control rate is above 85%) | Weeding effect in post-emergence stage, Alopecurus japonicus ([2]; Dose 15 g/ha): 5 (Level 5: growth control rate is above 85%) | Weeding effect in post-emergence stage, Digitaria sanguinalis ([3]; Dose 15 g/ha): 5 (Level 5: growth control rate is above 85%) | Weeding effect in post-emergence stage, Eleusine indica ([4]; Dose 15 g/ha): 5 (Level 5: growth control rate is above 85%) | Weeding effect in post-emergence stage, Setaria viridis ([5]; Dose 15 g/ha): 5 (Level 5: growth control rate is above 85%) | Weeding effect in post-emergence stage, Echinochloa crusgalli ([6]; Dose 15 g/ha): 5 (Level 5: growth control rate is above 85%)

CSCCOC(=O)[C@@H](C)O/N=C/c1cc(-n2c(=O)cc(C(F)(F)F)n(C)c2=O)c(F)cc1Cl [234(R)]
Weeding effect in post-emergence stage, Abutilon theophrasti ([1]; Dose 15 g/ha): 5 (Level 5: growth control rate is above 85%) | Weeding effect in post-emergence stage, Alopecurus japonicus ([2]; Dose 15 g/ha): 5 (Level 5: growth control rate is above 85%) | Weeding effect in post-emergence stage, Digitaria sanguinalis ([3]; Dose 15 g/ha): 5 (Level 5: growth control rate is above 85%) | Weeding effect in post-emergence stage, Eleusine indica ([4]; Dose 15 g/ha): 5 (Level 5: growth control rate is above 85%) | Weeding effect in post-emergence stage, Setaria viridis ([5]; Dose 15 g/ha): 5 (Level 5: growth control rate is above 85%) | Weeding effect in post-emergence stage, Echinochloa crusgalli ([6]; Dose 15 g/ha): 5 (Level 5: growth control rate is above 85%)

CCCOC(=O)OC(=O)[C@@H](C)O/N=C/c1cc(-n2c(=O)cc(C(F)(F)F)n(C)c2=O)c(F)cc1Cl [236(R)]
Weeding effect in post-emergence stage, Abutilon theophrasti ([1]; Dose 60 g/ha): 5 (Level 5: growth control rate is above 85%) | Weeding effect in post-emergence stage, Alopecurus japonicus ([2]; Dose 60 g/ha): 5 (Level 5: growth control rate is above 85%) | Weeding effect in post-emergence stage, Digitaria sanguinalis ([3]; Dose 60 g/ha): 5 (Level 5: growth control rate is above 85%) | Weeding effect in post-emergence stage, Eleusine indica ([4]; Dose 60 g/ha): 5 (Level 5: growth control rate is above 85%) | Weeding effect in post-emergence stage, Setaria viridis ([5]; Dose 60 g/ha): 5 (Level 5: growth control rate is above 85%) | Weeding effect in post-emergence stage, Echinochloa crusgalli ([6]; Dose 60 g/ha): 5 (Level 5: growth control rate is above 85%)
